System: human mammary cancer-derived KPL-4 cells
Assay: Growth inhibition test on human mammary cancer-derived KPL-4 cells (WST-1)
Format: cell-based
Settings: KPL4, 72 hours culture, read-out: 50% growth inhibitory concentration (GI50)
Method: Two thousand cells of human mammary cancer-derived KPL-4 cells were inoculated into each well of a 96-well microplate (manufactured by Nunc Corp.), and using Dulbecco's Modified Eagle's Medium (DMEM) (culture medium) containing 10% fetal calf serum (FCS), preculturing was performed in a 5% carbon dioxide incubator at 37° C. for 24 hours. A dimethyl sulfoxide (DMSO) solution of each test compound prepared in a concentration of 10 mmol/L was diluted with the culture medium step-by-step to a final concentration of […], and the diluted solution was added to each well. The individual wells were further cultured in the 5% carbon dioxide incubator at 37° C. for 72 hours. After completion of the culturing, 20 μL of WST-1 {4-[3-(4-Iodophenyl)-2-(4-nitrophenyl)-2H-5-tetrazolio]-1,3-benzene disulfonate} reagent mixture (manufactured by Roche Diagnostic Corp.) diluted to twice its original amount by culture medium was added to each well, and culturing was performed in the 5% carbon dioxide incubator at 37° C. for 1 hour. Using a microplate spectrophotometer (Model 550; manufactured by Bio-Rad), the absorbance of each well was measured at 450 nm and 655 nm. The cell growth inhibitory activity was expressed as 50% growth inhibitory concentration (GI50). The method for calculating the GI50 value is as follows. A value obtained by subtracting the absorbance at 655 nm from the absorbance at 450 nm (absorbance difference) was calculated for each well. The absorbance difference obtained for cells not treated with a test compound was designated as 100%, which was compared with the absorbance difference obtained for cells treated with each compound at various test concentrations, and thus the compound concentration at which cell growth was inhibited by 50% was calculated to determine the GI50 value.

O=C(Nc1ccccc1)c1c(O)cc(O)cc1COCc1ccccc1 [Compound 1, 2-(Benzyloxymethyl)-4,6-dihydroxy-N-phenylbenzamide]
GI50: ≤ 50 µM

O=C(NCc1ccccc1)c1c(O)cc(O)cc1COCc1ccccc1 [Compound 2, N-benzyl-2-(benzyloxymethyl)-4,6-dihydroxybenzamide]
GI50: ≤ 50 µM

O=C(NCCc1ccccc1)c1c(O)cc(O)cc1COCc1ccccc1 [Compound 3, 2-(Benzyloxymethyl)-4,6-dihydroxy-N-phenethylbenzamide]
GI50: ≤ 50 µM

O=C(NCc1ccccn1)c1c(O)cc(O)c(Cl)c1COCc1ccccc1 [Compound 9, 2-(Benzyloxymethyl)-3-chloro-4,6-dihydroxy-N-(pyridin-2-ylmethyl)benzamide]
GI50: ≤ 50 µM

COC(=O)c1c(O)cc(O)c(Br)c1COCc1ccccc1 [Compound 10, 2-(Benzyloxymethyl)-3-bromo-4,6-dihydroxybenzoic acid methyl ester]
GI50: ≤ 50 µM

CCc1c(O)cc(O)c(C(=O)N2CCOCC2)c1CC(=O)OC [Compound 14, [2-Ethyl-3,5-dihydroxy-6-(morpholinocarbonyl)phenyl]acetic acid methyl ester]
GI50: ≤ 50 µM

CCCN(C)C(=O)c1c(O)cc(O)c(CC)c1CC(=O)OC [Compound 15, [2-Ethyl-3,5-dihydroxy-6-(N-methyl-N-propylcarbamoyl)phenyl]acetic acid methyl ester]
GI50: ≤ 50 µM

CCc1c(O)cc(O)c(C(=O)N(C)CCOC)c1CC(=O)OC [Compound 16, {2-Ethyl-3,5-dihydroxy-6-[N-(2-methoxyethyl)-N-methylcarbamoyl]phenyl}acetic acid methyl ester]
GI50: ≤ 50 µM

CCc1c(O)cc(O)c(C(=O)N2CCCCC2)c1CC(=O)OC [Compound 17, [2-Ethyl-3,5-dihydroxy-6-(piperidinocarbonyl)phenyl]acetic acid methyl ester]
GI50: ≤ 50 µM

CCc1c(O)cc(O)c(C(=O)N2CCN(C)CC2)c1CC(=O)OC [Compound 18, [2-Ethyl-3,5-dihydroxy-6-(4-methylpiperazin-1-ylcarbonyl)phenyl]acetic acid methyl ester]
GI50: ≤ 50 µM

CCc1c(O)cc(O)c(C(=O)NCc2ccccc2)c1CCO [Compound 19, N-benzyl-3-ethyl-4,6-dihydroxy-2-(2-hydroxyethyl)benzamide]
GI50: ≤ 50 µM

CCc1c(O)cc(O)c(C(=O)OC)c1CC(=O)OC [Compound 23, 3-Ethyl-4,6-dihydroxy-2-(methoxycarbonylmethyl)benzoic acid methyl ester]
GI50: ≤ 50 µM

Reference: patent US7781485B2, “Hsp90 family protein inhibitors” (Kyowa Hakko Kirin Co., Ltd., priority 2004, dated 2010)
